Test results: PubChem BioAssay (NCI)
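Dose response: 5 concentrations. Exposure: 48 h. Format: 96-well plates. Endpoint: linear interpolation; highest concentration if not reached. TGI: concentration producing complete growth inhibition.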

Columns and labels:
Assay in all cases: NCI anticancer screen, dose series, 48 h
KM12 colon = test system: KM12 colon
MCF7 breast = test system: MCF7 breast
SNB-19 CNS = test system: SNB-19 CNS
BT-549 breast = test system: BT-549 breast
MDA-MB-435 = test system: MDA-MB-435
RPMI-8226 leukemia = test system: RPMI-8226 leukemia
HCT-116 colon = test system: HCT-116 colon
HCC-2998 colon = test system: HCC-2998 colon
SK-MEL-2 melanoma = test system: SK-MEL-2 melanoma
MDA-MB-231 breast = test system: MDA-MB-231 breast
MDA-N = test system: MDA-N
LOX IMVI melanoma = test system: LOX IMVI melanoma
NCI-H522 lung = test system: NCI-H522 lung
HOP-92 NSCLC = test system: HOP-92 NSCLC
HOP-62 NSCLC = test system: HOP-62 NSCLC
U251 CNS = test system: U251 CNS
COLO 205 colon = test system: COLO 205 colon
CCRF-CEM leukemia = test system: CCRF-CEM leukemia
SNB-75 CNS = test system: SNB-75 CNS

Row | Compound | TGI (KM12 colon) [µM] | TGI (MCF7 breast) [µM] | TGI (SNB-19 CNS) [µM] | TGI (BT-549 breast) [µM] | TGI (MDA-MB-435) [µM] | TGI (RPMI-8226 leukemia) [µM] | TGI (HCT-116 colon) [µM] | TGI (HCC-2998 colon) [µM] | TGI (SK-MEL-2 melanoma) [µM] | TGI (MDA-MB-231 breast) [µM] | TGI (MDA-N) [µM] | TGI (LOX IMVI melanoma) [µM] | TGI (NCI-H522 lung) [µM] | TGI (HOP-92 NSCLC) [µM] | TGI (HOP-62 NSCLC) [µM] | TGI (U251 CNS) [µM] | TGI (COLO 205 colon) [µM] | TGI (CCRF-CEM leukemia) [µM] | TGI (SNB-75 CNS) [µM]
1 | NS(=O)(=O)c1nnc(NC(=O)c2ccccc2)s1 | > 100 | > 100 | > 100 | > 100 | > 100 | > 100 | > 100 | > 100 | > 100 | > 100 | > 100 | > 100 | > 100 | > 100 | > 100 | > 100 | > 100 | – | –
2 | Oc1cc(O)c2c(c1)O[C@H](c1cc(O)c(O)c(O)c1)[C@H](O)C2 | – | 40.1 | > 100 | 56.6 | 25.4 | 31.7 | 40.3 | – | 28.9 | 33.6 | 40.9 | 77.6 | 38.1 | > 100 | 37.3 | 30.4 | 33.2 | 42.4 | 98
3 | CCN(CC)Cc1cc(Nc2ccnc3ccc4c(nnn4C)c23)ccc1O | 39.7 | 16.7 | 21.3 | 37.1 | – | – | 18.2 | 10.7 | 31.8 | 44.6 | 27 | 29.9 | 86 | – | 19 | – | 32.4 | 35.7 | 19.9
4 | Clc1cccc(Cl)c1C1SCC2=Nc3ccccc3CN21 (stereo unspecified) | 48.1 | 52.7 | 25.8 | > 100 | > 100 | > 100 | 25.7 | > 100 | – | > 100 | > 100 | 41.1 | – | > 100 | 48.9 | > 100 | 27 | > 100 | > 100
5 | C1=C2C3=[N+](CCCC3)CC2Cc2ccsc21 (stereo unspecified) | > 100 | > 100 | > 100 | > 100 | > 100 | – | > 100 | – | > 100 | > 100 | > 100 | > 100 | > 100 | > 100 | > 100 | > 100 | > 100 | > 100 | > 100
6 | O=C1NC(Nc2cccc(Cl)c2)=N/C1=C\c1ccc(Cl)c(Cl)c1 | 14.8 | 11.1 | 21 | 25.1 | 17.6 | 22.7 | 14.2 | 5.27 | 6.77 | – | 15.8 | 4.26 | 6.62 | 11.4 | 23.4 | 14.6 | 13.1 | 35.3 | 26.6
7 | O=C(CC(=O)n1nc(-c2ccccc2)c(N=Nc2ccc(Cl)cc2)c1-c1ccccc1)Nc1cccc(Cl)c1 | > 100 | – | > 100 | > 100 | – | > 100 | > 100 | > 100 | > 100 | > 100 | > 100 | – | – | > 100 | > 100 | > 100 | > 100 | > 100 | > 100
